Measured values: article PMC6982022 (International Journal of Molecular Sciences, 2019)
Where two headings read alike, the source gives them in different places.

Experiments:
rodent model of diabetes = tested on: rodent model of diabetes; set-up: method as in PMID 20000679; settings: ref 36; cited from earlier work
GBA2 = settings: ref 15; cited from earlier work
male CD rats = assay: Rat mating trial (fertility); format: in vivo; settings: 15 mg/kg/day oral, 35 days; data not presented
Method: Eighteen adult male CD rats were divided into three groups of six rats each. One group of six CD rats was treated with vehicle (distilled water containing 0.9% benzyl alcohol) via oral gavage (5 mL/kg/day), and the second group (6 rats) was treated with NB-DGJ (in distilled water containing 0.9% benzyl alcohol) via oral gavage at 150 mg/kg/day (in approximately 5 mL/kg of water) daily for 35 consecutive days. The third group (6 rats) was treated with 15 mg/kg NB-DNJ in distilled water containing 0.9% benzyl alcohol) via oral gavage (in approximately 5 mL/kg of water) daily for 35 consecutive days (Figure S5).
Rats were weighed on day 0 (first day of dosing) and weekly thereafter. Dosages were adjusted based on the most recent body weight. Males were cohabited with untreated females (one male per two females) weekly at weeks 1 through 9 [38, 39]. Females were necropsied seven days after separation from males to determine the numbers of implantation sites. Individual male rats were bled from the tail vein at weeks 0, 1, 4, and 7 and serum was harvested by centrifugation. At week 11, the male rats were weighed, anesthetized, and exsanguinated. Sera were analyzed for inhibin B by ELISA (enzyme-linked immunosorbent assay), and rat follicle stimulating hormone (rFSH) and testosterone by radioimmunoassay. Testes, epididymides, ventral prostates, and seminal vesicles were excised and weighed. The left testis was homogenized, and spermatid head counts obtained.
Statistical analysis using the Student’s t-test was performed on body weights, paired testes weights, ventral prostrate weights, seminal vesicle weights, paired epididymal weights, spermatid head counts, percent motile and normal epididymal sperm. We used analysis of variance (ANOVA) for serum inhibin B, rFSH, and testosterone, since these measurements were repeated throughout the study period. The effect of NB-DNJ at 15 mg/kg/day dose in the rat model was studied following the same protocol as that for NB-DGJ.

human subjects = tested on: human subjects; set-up: method as in PMID 17067996, PMID 10801168, PMID 7905523; settings: ref 25, 26, 27; cited from earlier work
C57BL/6 mice = settings: cited from earlier work
[1] = set-up: method as in PMID 17624027; settings: male and female CD rats, oral [3H]-NB-DNJ 160 mg/kg, cited from earlier work
C57BL6J mice [2] = assay: Epididymal sperm acrosome morphology (FITC-PSA staining) after 35 days oral dosing; format: in vivo, mouse; settings: 15, 25 and 50 mg/kg oral daily
Method: (§1) Groups of six mice, each, were used for three different doses of NB-DNJ or NB-DGJ formulated in milliQ water at 50 mg/kg, 25 mg/kg and 15 mg/kg, respectively. Control groups were given an equivalent volume of water. Animals were given compound or control once daily for 35 consecutive days via oral gavage using animal feeding needles (Biomedical Needles, Popper, NY, USA). Body weight was noted every week for all treatment groups. Mice were euthanized at the end of a 35 days dosing regimen using CO2 asphyxia followed by cervical dislocation. Testes were harvested, weighed and stored in Bouin’s fixative for 48 h, then sliced into two halves, and stored in fresh Bouin’s for another 24 h. The tissue slices were then rinsed in 70% ethanol and processed and stained for histology using a standard protocol for Hematoxylin and eosin staining. Spermatids with elongated and abnormally shaped heads were counted per 20 fields and average number calculated for 6 mice/group.
For sperm retrieval, epididymis was removed from the animal and placed in Petri dish. One mL of capacitation buffer (Capacitation buffer consisted of 110 mM NaCl, 2.68 mM KCl, 0.36 mM NaH2PO4, 25 mM NaHCO3, 0.49 mM MgCl2, 2.40 mM CaCl2, 25 mM HEPES, 5.50 mM Glucose, 1 mM Pyruvic acid, pH 7.4; Tash and Bracho, 1998) at room temperature was added to the dish. Using forceps, the caput of the epididymis was held in place and the cauda sliced repeatedly with a razor blade. The spermatozoa were allowed to disperse for 15 min with gentle swirling intermittently. A 100 µL aliquot of the sperm suspension was dropped onto a standard glass microscope slide (Fisherbrand superfrost microscope slides 25 × 75 × 1.0 mm)) and smeared with side of pipette tip. The slides were air dried flat for 1 h at room temperature. The sperm smear was fixed in methanol for 2 min. The sperm smear was than stained using FITC-PSA (Fluorescein isothiocyanate Pisum Sativum Agglutinin; Vector Laboratories, Burlingame, CA) was diluted 1:7000 in PBS containing 1:10,000 DAPI dihydrochloride, FluoroPure™ grade, Invitrogen) (≥98% pure) to make the stock solution. To each slide, 100 µL of FITC-PSA was added and spread out with edge of pipette tip to cover the dried sperm smear. The slides were incubated at 37 °C for 10 min, and then washed with 5 changes of PBS for 5 min each. The slides were air-dried and mounted with 20 µL Vectashield mounting medium for fluorescence (Vector Laboratories, Burlingame, CA, USA) and observed. Slides were viewed on a Nikon IX-81 microscope under a 40× objective using FITC and DAPI filter to visualize acrosome morphology. The phase contrast images were also collected at the same magnification to compare morphological details.

C57BL6J mice [3] = assay: Testis histology (H&E) after 35 days oral dosing; format: in vivo, mouse; settings: 15, 25 or 50 mg/kg, oral daily
Method: as §1

[4] = C57BL/6 mice, daily oral 15 mg/kg

For OC[C@@H]1[C@@H](O)[C@H](O)[C@@H](O)CN1CCCCCOCC12CC3CC(CC(C3)C1)C2, which “Control of hyperglycemia (in words)” value (rodent model of diabetes) is on record?
Its value is “potently control hyperglycemia”.

With CCCCN1C[C@H](O)[C@@H](O)[C@H](O)[C@H]1CO [NB-DNJ, N-butyldeoxynojirimycin] as the molecule, how does the “Effect on fertility in mating trial (in words)” value (male CD rats) read?
Its value is “did not show effect on fertility by week 6”.

And the “Effect in human subjects (sperm counts, semen parameters)” value (human subjects)?
The value was “no effect”.

What about the “Time to return of fertility after cessation” value (C57BL/6 mice; C57BL/6 mice, 15 mg/kg) of the same molecule?
Its value is “three weeks”.

And the “Effect on fertility (in words)” value (C57BL/6 mice; [4])?
The value was “Reversible inhibition of fertility”.

What about the “Time of daily dosing until inhibition of fertility was observed” value (C57BL/6 mice; [4]) of the same molecule?
Its value is “three weeks”.

And the “Strain/species specificity of male contraceptive activity (in words)” value (C57BL/6 mice; ref 24)?
The value was “only effective as a male contraceptive in C57BL/6 and C57BL/6-related mice”.

And the Cmax [1]?
The Cmax was 13,800 ng/mL.

And the tmax [1]?
The tmax was 0.5 h.

And the t½ [1]?
Its t½ is 4.5 h.

And the Cmax ([1]; read-out: Cmax in molar units)?
Its Cmax is roughly 63 µM.

And the “Sperm acrosome morphology (in words)” value (C57BL6J mice [2])?
Its value is “abnormal acrosome in all spermatozoa”.

And the “Testis histology, spermatid heads (in words)” value (C57BL6J mice [3])?
Its value is “rounded, abnormally shaped spermatid heads”.
